Source: the RepoRT retention time repository (doi:10.1093/pcp/pcn183)
Counter-ions that a name gives are not always drawn.

assay: RP, Waters ACQUITY UPLC BEH C18, 38 °C, 0.24 mL/min; A: water + 0.1% formic acid, pH 3; B: acetonitrile + 0.1% formic acid, pH 3; gradient (min/%B) 0/0 0.25/0 0.4/9 0.8/17 1.9/100 2.1/100 2.11/0 3/0; conditions: stereoisomer not certain

LC retention time	Structure (SMILES)
1.54 min	COc1ccc(-c2cc(=O)c3c(O)cc(OC4OC(COC5OC(C)C(O)C(O)C5O)C(O)C(O)C4O)cc3o2)cc1 (configuration not stated) [Linarin]
0.2 min	Nc1ccc(O)cc1 [4-Aminophenol hydrochloride]
0.16 min	NC(N)=NCCCC(N)C(=O)O (stereo not drawn) [L(+)-Arginine]
0.24 min	CC(=O)OCC[N+](C)(C)C [Acetylcholine chloride]
1.87 min	CCCCCC1CCC(=O)O1 (configuration not stated) [4-Nonanolide]
1.15 min	COc1cc(-c2[o+]c3cc(O)cc(OC4OC(CO)C(O)C(O)C4O)c3cc2OC2OC(CO)C(O)C(O)C2O)cc(OC)c1O (configuration not stated) [Malvin chloride]
1.1 min	N[C@@H](Cc1ccc(O)c(Cl)c1)C(=O)O [3-Chloro-L-tyrosine hydrochloride]
0.72 min	Nc1nc2c(ncn2C2CC(O)C(COP(=O)(O)O)O2)c(=O)[nH]1 (configuration not stated) [2'-deoxyguanosine 5'-monophosphate sodium salt hydrate]
2 min	COc1cc(CNC(=O)CCCCCCC(C)C)ccc1O [Dihydrocapsaicin]
0.38 min	O=C(O)C=Cc1cnc[nH]1 [urocanic acid]
0.18 min	NC1(C(=O)O)CC1 [1-Aminocyclopropane-1-carboxylic acid]
0.16 min	O=P(O)(O)O[C@H]1O[C@H](CO)[C@H](O)[C@H](O)[C@H]1O [alpha-D-Galactose-1-phosphate dipotassium salt pentahydrate]
1.16 min	OCC1OC(Oc2cc3c(O)cc(O)cc3[o+]c2-c2cc(O)c(O)c(O)c2)C(O)C(O)C1O (stereo not drawn) [Delphinidin-3-O-beta-glucopyranoside]
0.16 min	NCC(=O)NCC(=O)O [Gly-Gly]
0.48 min	O=c1[nH]c(=O)c2ncn(C3OC(COP(=O)(O)O)C(O)C3O)c2[nH]1 (configuration not stated)
0.17 min	COC1C(O)C(O)C(O)C(O)C1O [D-Pinitol]
1.11 min	Cc1cn(C2CC(O)C(CO)O2)c(=O)[nH]c1=O (configuration not stated) [Thymidine]
0.21 min	OCC1OC(OC2C(O)C(CO)OC2(CO)OC2OC(CO)C(O)C(O)C2O)C(O)C(O)C1O [D-(+)-Melezitose hydrate]
0.26 min	O=c1ccn(C2OC(COP(=O)(O)O)C(O)C2O)c(=O)[nH]1 (configuration not stated) [Uridine-5'-monophosphate]
1.14 min	CSCC1OC(n2cnc3c(N)ncnc32)C(O)C1O (configuration not stated) [5'-Deoxy-5'-Methylthioadenosine]
0.24 min	CC(=O)NC(CO)C(=O)O (racemic) [N-acetyl-DL-serine]
1.29 min	O=C(O)CNC(=O)c1ccccc1 [Hippuric Acid]
1.06 min	Nc1ncnc2c1ncn2C1OC(CO)C(O)C1O (configuration not stated) [Adenosine]
1.55 min	O=C(O)c1ccccc1O [Salicylic Acid]
0.39 min	Nc1ncnc2c1ncn2C1OC(COP(=O)(O)O)C(O)C1O (configuration not stated) [Adenosine-5'-monophosphate sodium salt]
2.13 min	O=P(O)(O)OC1C(O)C(O)C(OP(=O)(O)O)C(O)C1O (configuration not stated)

LC retention time	Structure (SMILES)
1.36 min	COc1cc(-c2[o+]c3cc(O)cc(OC4OC(CO)C(O)C(O)C4O)c3cc2OC2OC(COC3OC(C)C(OC(=O)C=Cc4ccc(O)cc4)C(O)C3O)C(O)C(O)C2O)cc(O)c1O (configuration not stated)
0.16 min	NCCCC(=O)NC(Cc1cnc[nH]1)C(=O)O [L-Homocarnosine]
0.16 min	CC(N)(Cc1cnc[nH]1)C(=O)O (racemic) [alpha-Methyl-DL-histidine dihydrochloride]
0.24 min	Oc1cccnc1 [3-Hydroxypyridine]
0.95 min	NC(CCC(=O)NC(CSSCC(NC(=O)CCC(N)C(=O)O)C(=O)NCC(=O)O)C(=O)NCC(=O)O)C(=O)O (configuration not stated) [Glutathione (oxidized form)]
1.29 min	COc1cc(-c2[o+]c3cc(O)cc(O)c3cc2OC2OC(CO)C(O)C(O)C2O)cc(OC)c1O (configuration not stated) [Oenin]
0.67 min	Nc1ccn(C2OC3COP(=O)(O)OC3C2O)c(=O)n1 (configuration not stated) [Cytidine-3',5'-cyclicmonophosphate]
1.12 min	CC(C)(COP(=O)(O)OP(=O)(O)OCC1OC(n2cnc3c(N)ncnc32)C(O)C1O)C(O)C(=O)NCCC(=O)NCCS (configuration not stated) [3'-Dephosphocoenzyme A]
0.38 min	C=CCC(=NOS(=O)(=O)O)SC1OC(CO)C(O)C(O)C1O (configuration not stated) [sinigrin]
0.57 min	CCCC[C@H](N)C(=O)O [L-Norleucine]
0.15 min	NC(CCCC(N)C(=O)O)C(=O)O (racemic) [DL-alpha,epsilon-Diaminopimelic acid]
1.81 min	CCCCCCCCCCCCCCCCC [Heptadecane]
1.19 min	Cc1cc2nc3c(=O)[nH]c(=O)nc-3n(CC(O)C(O)C(O)COP(=O)(O)O)c2cc1C (configuration not stated)
0.17 min	C[N+](C)(C)CC(=O)[O-] [Betaine]
0.41 min	[NH3+]CCCCCC(=O)[O-] [6-Aminohexanoic acid]
0.16 min	O=S(=O)(O)CCN1CCN(CCS(=O)(=O)O)CC1 [PIPES]
0.19 min	OCC1OC(OCC2OC(O)C(O)C(O)C2O)C(O)C(O)C1O (configuration not stated)
1 min	O=C(O)C(O)c1cccc(O)c1 (configuration not stated) [3-Hydroxymandelic acid]
1.69 min	CC(=O)Oc1ccc2c(C)cc(=O)oc2c1 [4-methylumbelliferyl acetate]
0.17 min	C[N+](C)(C)CCOP(=O)(O)O [O-Phosphocholine]
1.57 min	NC(=O)CCCCC1CCSS1 (racemic) [DL-Thioctamide]
0.78 min	N=C(N)c1ccccc1 [Benzamidine hydrochloride hydrate]
0.16 min	C[N+](C)(C)CC=O [Betaine aldehyde chloride]
0.18 min	O=C(O)C1=CCNCC1 [Isoguvacine hydrochloride]
1.11 min	CC(C)(CO)C(O)C(=O)NCCC(=O)O (stereo not drawn) [Calcium (+)-pantothenate]
0.14 min	NCCc1cnc[nH]1 [Histamine]

LC retention time	Structure (SMILES)
1.41 min	O=c1cc(-c2ccc(O)c(O)c2)oc2cc(OC3OC(CO)C(O)C(O)C3O)cc(O)c12 (configuration not stated) [luteolin-7-O-glucoside]
0.31 min	O=c1cc[nH]c(=O)[nH]1 [Uracil]
0.27 min	Nc1nc2c(ncn2C2OC(COP(=O)(O)OP(=O)(O)OC3OC(CO)C(O)C(O)C3O)C(O)C2O)c(=O)[nH]1 [Guanosine-5'-diphosphate-D-mannose sodium salt]
0.17 min	CC(N)(CO)C(=O)O (racemic) [alpha-Methyl-DL-serine]
1.47 min	COc1ccccc1C(=O)O [o-Anisic Acid]
0.19 min	CC(=O)OC[C@H](N)C(=O)O [O-acetyl-L-serine hydrochloride]
0.2 min	N[C@@H](CSCC(=O)O)C(=O)O [S-Carboxymethyl-L-cysteine]
1.42 min	O=C(O)C(O)Cc1ccccc1 (racemic) [DL-3-Phenyllactic acid]
1.3 min	COc1cc(-c2[o+]c3cc(O)cc(O)c3cc2OC2OCC(O)C(O)C2O)ccc1O (stereo not drawn) [Peonidin-3-O-alpha-arabinopyranoside]
1.52 min	COc1cc(C=CC=O)ccc1O [4-Hydroxy-3-methoxycinnamaldehyde]
1.68 min	COc1ccccc1C=CC(=O)O [2-Methoxycinnamic acid]
0.32 min	NC(=O)c1ncn(C2OC(COP(=O)(O)O)C(O)C2O)c1N (configuration not stated)
0.19 min	Cc1ncc(C[n+]2csc(CCO)c2C)c(N)n1 [Thiamine hydrochloride]
0.53 min	CC(C)CC(N)C(=O)O [L-Leucine, (Cell Culture Reagent, Crystalline)]
0.39 min	Cc1ncc(COP(=O)(O)O)c(C=O)c1O [pyridoxal-5'-phosphate hydrate]
1.16 min	N[C@@H](Cc1c[nH]c2ccccc12)C(=O)O [L-Tryptophane]
1.38 min	O=C(O)Cc1ccccc1O [2-Hydroxyphenylacetic acid]
1.7 min	COc1cc(-c2oc3cc(O)cc(O)c3c(=O)c2O)ccc1O [Isorhamnetin]
0.17 min	O=C(O)[C@H](O)[C@@H](O)[C@H](O)[C@H](O)CO [D-Gluconic acid sodium salt]
0.15 min	N[C@H](CS)C(=O)O [D-Cysteine]
0.33 min	CC(=O)OC(CC(=O)O)C[N+](C)(C)C [O-Acety-L-carnitine hydrochloride]
1.11 min	OCC1OC(Oc2cc3c(OC4OC(CO)C(O)C(O)C4O)cc(O)cc3[o+]c2-c2ccc(O)c(O)c2)C(O)C(O)C1O (configuration not stated) [cyanidin-3,5-di-O-glucoside chloride]
0.19 min	CN1CC(=O)NC1=N [Creatinine,anhydrous]
0.29 min	NC(=NCCCC(N)C(=O)O)NC(CC(=O)O)C(=O)O (configuration not stated) [Argininosuccinic acid disodium salt]

Structure (SMILES)	LC retention time
CN1C2CCC1CC(=O)C2 [Tropinone]	0.24 min
